# From patent publication US11465989B2, “Guanidine compounds and use thereof” (IMMUNOMET THERAPEUTICS INC., priority 2014, dated 2022)
# Structures can show the parent of a compound that is named as a salt. Where two headings read alike, the source gives them in different places.
# Tests used:
# A549 cells = assay: Inhibition of OCR (XF Analyzer); format: cell-based
# Source text: The electron transfer complex in mitochondria is composed of 5 complexes. The complex I accept electrons from NADH produced from glycolysis and TCA cycle and the electrons move to complex […] and the electron is finally transferred to O2 and water molecule is generated. During the electron transfer, proton gradient is generated and the chemical gradient is a driving source to synthesize ATP at complex V. The mitochondrial inhibition of complex I indirectly assessed by measuring the oxygen consumption rate (OCR) at complex IV. […] The solution outside of cells becomes acidic (lower pH) as lactate is transported to outside of cells. OCR and Extracellular acidification rate (ECAR) are determined by XF Analyzer (Seahorse Biosciences).
# A549 cells were purchased from American Type Tissue Culture Collection ([…]) and cultured in RPMI 1640 supplied with 10% fetal bovine serum (FBS) and antibiotic-antimycotic (Lifetech, CA). A549 cells were separated with 0.5% Trypsin-EDTA and 3,000 cells were plated on 1 mg/ml poly-D-lysine (Sigma, P6407) coated XF 96 well […]. A549 cells were allowed to adhere to the wells for 24 hours under the condition of temperature, 37° C. and 5% CO2 The sensor cartridge of XF Analyzer was soaked in 200 Ad of Calibrant solution (Seahorse, MA) in a clear 96-well plate at 37° C. for 24 hours. The compounds of the present invention were diluted with RPMI 1640 without FBS, transferred to A549 cells on XF 96 well plate, and incubated further for 23 hours at 37° C. and 5% CO2. After incubation, the compound solution was exchanged with pre-warmed and pH adjusted (pH7.4) XF assay media (Seahorse) supplied with 15 mM D-glucose (Sigma), 15 mM sodium pyruvate (Lifetechnologies, CA) and 4 mM L-glutamine (Lifetechnologies, CA). The compounds of present invention were prepared in XF Assay media and added to the assay plate. The assay plate was equilibrated in XF Analyzer for 1 hour, and the reading were started by sensor cartridge. The cytotoxicity assay was followed using Cyquant (Lifetechnologies, CA) in order to calibrate the inhibition with cytotoxicity of compounds. The concentrations of the compounds were tested at […] and IC50 value was obtained from the inhibited values. That is, from OCR inhibition values at each concentration of the compound, IC50 was calculated according to Prism's dose response curve fitting.
# In Table 1, the levels of OCR IC50 are evaluated by the following.
# SK-MEL-28 cells = assay: Cytotoxicity in low glucose condition (MTT); format: cell-based; conditions: SK-MEL-28, 0.75 mM glucose, 72 hours, read-out: SK-MEL-28 0.75 mM glucose Cell viability (IC50 ia)
# Source text: The inhibition of oxidative phosphorylation (OXPHOS) is not cytotoxic to cells in normal glucose condition, because it is postulated that normal cells have compensatory mechanism under energy stress conditions such as low glucose. However OXPHOS inhibitors show cytotoxic effect on cells in the glucose deprived condition (BirsoyK, 2014). The glucose deprived condition is observed in tumor microenvironment potentially due to poor angiogenesis. Therefore the OXPHOS inhibitors may show anti-cancer effect on cancer cells in low glucose condition that may depict tumor microenvironment.
# The compounds of the present invention were evaluated their cytotoxicity in SK-MEL-28, melanoma with 0.75 mM glucose supplement. The cytotoxic effect is compared with the cytotoxicity caused by phenformin. The cytotoxicity in low glucose condition is correlated with inhibition of oxygen consumption in mitochondria.
# SK-MEL-28 (HTB-72) is a melanoma cell line obtained from ATCC (MA) and cultured in RPMI 1640 media (Lifetechnologies, CA) with supplement of 10% FBS and antibiotic-antimycotic (Lifetechnologies, CA). RPMI 1640 (-Glucose) was used to prepare low glucose media and 0.75 mM glucose was supplied with D-(+)-glucose solution from Sigma. SK-MEL-28 cells were separated from culture plate using 0.5% trypsin-EDTA and 5,000 cells were plated in 96-well plate with low glucose media. After incubation at 37° C. for 24 hour, 5% CO2, the cells were treated with the compounds of present invention in FBS-free media for 72 hours. The cytotoxicity was measured by the MTT (AMRESCO, OH) assay. NADH-dependent cellular oxidoreductase reduces MTT to its insoluble […] with purple color. The enzyme depends on cell number or energy state of cells. 10 μl of 5 mg/ml MIT solution was added to each well of the assay plate and skip the well for blank. The plate was incubated at 37° C. and 5% CO2 for 2 hours. The MTT solution was removed from each well and 100 μl of DMSO was added. The plate was read by VICTOR X3 Multilabel Counter at the wavelength of 550 nm. In Table 2, the levels of IC50 are evaluated by the following criteria.
Structure (SMILES),"IC50 (A549 cells; Homo sapiens, A549, 24 h)",IC50 (SK-MEL-28 cells; Homo sapiens),"IC50 (A549 cells; A549, 24 hrs)",IC50 (SK-MEL-28 cells)
"N=C(N)NCCC1CCCC1 [Example 204, 1-(2-cyclopentylethyl) guanide hydrochloride]",2 to 5 µM,> 10 µM,,
"N=C(N)NCc1ccc2c(c1)CCCC2 [Example 199, 1-((5,6,7,8-tetrahydronaphthalen-2-yl)methylguanide hydrochloride]",> 5 µM,> 10 µM,,
"N=C(N)NC(=N)NCCc1ccc2c(c1)CCCC2 [Example 30, N-1-(2-(5,6,7,8-tetrahydronaphthalen-2-yl)ethyl)biguanide hydrochloride]",,,> 5 µM,< 5 µM
"N=C(N)NC(=N)NCCc1ccc(F)c(Cl)c1 [Example 52, N-1-(3-chloro-4-fluoro)phenethylbiguanide hydrochloride]",> 5 µM,5 to 10 µM,,
"N=C(N)NC(=N)NCCc1ccc(I)c(Br)c1 [Example 72, N-1-(4-iodo-3-bromo)phenethylbiguanide hydrochloride]",> 5 µM,5 to 10 µM,,
"CNC(=N)NC(=N)NCCc1ccc2c(c1)CCCC2 [Example 126, N-1-methyl-N-5-(2-(5,6,7,8-tetrahydronaphthalen-2-yl)ethyl) biguanide hydrochloride]",> 5 µM,< 5 µM,,
"Cc1ccccc1CCNC(=N)NC(=N)N [Example 22, N-1-(2-methyl)phenethylbiguanide hydrochloride]",< 2 µM,> 10 µM,,
"N=C(N)NCCc1ccc(C2CC2)cc1 [Example 182, 1-(4-cyclopropylphenethyl)guanide hydrochloride]",2 to 5 µM,5 to 10 µM,,
"CNC(=N)NC(=N)NCCc1ccc(Cl)c(Cl)c1 [Example 122, N-1-(3,4-dichloro)phenethyl-N5-methylbiguanide hydrochloride]",> 5 µM,5 to 10 µM,,
"N=C(N)NC(=N)NCCc1ccc(Br)c(Br)c1 [Example 70, N-1-(3,4-dibromo)phenethylbiguanide hydrochloride]",2 to 5 µM,< 5 µM,,
"N=C(N)NC(=N)NCCc1ccccc1Cl [Example 3, N-1-(2-chloro)phenethylbiguanide hydrochloride]",< 2 µM,5 to 10 µM,,
"Cc1cc(CNC(=N)NC(=N)N)ccc1Br [Example 68, N-1-(4-bromo-3-methyl)benzylbiguanide hydrochloride]",2 to 5 µM,5 to 10 µM,,
"Cc1ccc(CNC(=N)NC(=N)N)c(C)c1 [Example 18, N-1-(2,4-dimethyl)benzylbiguanide hydrochloride]",> 5 µM,> 10 µM,,
"N=C(N)NC(=N)NCc1ccc2c(c1)CCCC2 [Example 48, N-1-2-(5,6,7,8-tetrahydronaphthalen-2-yl)methanebiguanide hydrochloride]",< 2 µM,> 10 µM,,
"Cc1ccccc1CCNC(=N)N [Example 161, 1-(2-methylphenethyl)guanide hydrochloride]",2 to 5 µM,> 10 µM,,
"N=C(N)NCCc1ccc2c(c1)CCCC2 [Example 183, 1-(2-(5,6,7,8-tetrahydronaphthalen-2-yl)ethyl)guanide hydrochloride]",< 2 µM,< 5 µM,,
"N=C(N)NC(=N)NCCc1ccc(Cl)c(Br)c1 [Example 76, N-1-(3-bromo-4-chloro)phenethylbiguanide hydrochloride]",2 to 5 µM,< 5 µM,,

Structure (SMILES),"IC50 (A549 cells; Homo sapiens, A549, 24 h)",IC50 (SK-MEL-28 cells; Homo sapiens),"IC50 (A549 cells; A549, 24 hrs)",IC50 (SK-MEL-28 cells)
"N=C(N)NCCc1ccc(-c2ccccc2)cc1 [Example 195, 1-(4-phenylphenethyl)guanide hydrochloride]",2 to 5 µM,< 5 µM,,
"N=C(N)NC(=N)NCCc1ccc(I)c(Cl)c1 [Example 78, N-1-(3-chloro-4-iodo)phenethylbiguanide hydrochloride]",< 2 µM,< 5 µM,,
"N=C(N)NC(=N)NCCc1ccc2c(c1)CCC2 [Example 66, N-1-2-(2,3-dihydro-1H-inden-5-yl)ethylbiguanide hydrochloride]",2 to 5 µM,< 5 µM,,
"N=C(N)NCC1CCCCC1 [Example 205, 1-(1-cyclohexylmethyl) guanide hydrochloride]",2 to 5 µM,> 10 µM,,
"COc1cc(CCNC(=N)NC(=N)N)ccc1I [Example 77, N-1-(4-iodo-3-methoxy)phenethylbiguanide hydrochloride]",2 to 5 µM,5 to 10 µM,,
"Cc1cc(F)ccc1CCNC(=N)N [Example 169, 1-(4-fluoro-2-methylphenethyl)guanide hydrochloride]",> 5 µM,> 10 µM,,
"N=C(N)NC(=N)NCCc1ccc2c(c1)CCCC2 [Example 44, N-1-2-(5,6,7,8-tetrahydronaphthalen-2-yl)ethylbiguanide hydrochloride]",2 to 5 µM,< 5 µM,,
"N=C(N)NC(=N)NCCc1ccc(Cl)c(I)c1 [Example 74, N-1-(3-iodo-4-chloro)phenethylbiguanide hydrochloride]",< 2 µM,< 5 µM,,
"CCCNC(=N)NC(=N)NCCc1ccc(Cl)c(Cl)c1 [Example 128, N-1-propyl-N-5-(3,4-dichloro)phenethylbiguanide hydrochloride]",> 5 µM,< 5 µM,,
"N=C(N)NC(=N)NCCc1ccccc1Br [Example 26, N-1-(2-bromo)phenethylbiguanide hydrochloride]",< 2 µM,< 5 µM,,
"N=C(N)NCc1c(F)cc(F)cc1F [Example 153, 1-(2,4,6-trifluorobenzyl)guanide hydrochloride]",> 5 µM,> 10 µM,,
"N=C(N)NC(=N)NCCc1ccc(I)cc1 [Example 71, N-1-(4-iodo)phenethylbiguanide hydrochloride]",> 5 µM,> 10 µM,,
"Cc1cc(F)ccc1CCNC(=N)NC(=N)N [Example 17, N-1-(4-fluoro-2-methyl)phenethylbiguanide hydrochloride]",2 to 5 µM,> 10 µM,,
"COc1cc(Br)ccc1CCNC(=N)NC(=N)N [Example 81, N1-(2-methoxy-4-bromo)phenethylbiguanide hydrochloride]",< 2 µM,5 to 10 µM,,
"N=C(N)NC(=N)NCCc1ccc(Br)c(I)c1 [Example 75, N-1-(3-iodo-4-bromo)phenethylbiguanide hydrochloride]",< 2 µM,< 5 µM,,
"Cc1ccc(CCNC(=N)NC(=N)N)cc1Cl [Example 50, N-1-(3-chloro-4-methyl)phenethylbiguanide hydrochloride]",2 to 5 µM,< 5 µM,,
"N=C(N)NCCC1CCCCC1 [Example 197, 1-(2-cyclohexylethyl)guanide hydrochloride]",2 to 5 µM,> 10 µM,,
